From ChEMBL document CHEMBL2150986, “Synthesis and biological evaluation of 1-benzylidene-3,4-dihydronaphthalen-2-one as a new class of microtubule-targeting agents” (J Med Chem, 2012)
pIC50: −log10 of the molar value.

Columns and labels:
CCRF-CEM = experiment: Cytotoxicity against human CEM cells after 72 hrs by MTT assay; assay type: functional, cell-based
HCT-116 = experiment: cells; details: Homo sapiens, HCT-116, 72 h
MDA-MB-435 = experiment: cells; details: Homo sapiens, MDA-MB-435, 72 h
Description: Cytotoxicity against human MDA-MB-435 cells after 72 hrs by MTT assay

Tubulin = Tubulin (Sus scrofa, UniProt P02554+P02550); experiment: Inhibition of porcine brain tubulin assembly measured every 1 min for 60 mins by turbidimetric analysis

SMILES | pIC50 (CCRF-CEM) | pIC50 (HCT-116) | pIC50 (MDA-MB-435) | IC50 (Tubulin) [µM]
COc1cccc2c1CCC(=O)/C2=C/c1ccccc1Cl | 5.05 | 5.24 | 5.47 | 
COc1ccc2c(c1)CCC(=O)/C2=C/c1ccccc1Cl | 6.24 | 5.77 | 6.34 | 
COc1ccc2c(c1)/C(=C\c1ccc(C(C)(C)C)cc1)C(=O)CC2 | < 5.00 | < 5.00 | < 5.00 | 
COc1cccc2c1CCC(=O)/C2=C/c1ccc(C(F)(F)F)cc1 | < 5.00 | 5.27 | 5.23 | 
COc1cccc2c1CCC(=O)/C2=C/c1ccccc1 | 5.06 | < 5.00 | 5.20 | 
COc1cccc2c1CCC(=O)/C2=C/c1ccc(C(C)(C)C)cc1 | < 5.00 | < 5.00 | < 5.00 | 
COc1cc(/C=C2/C(=O)CCc3c(OC)cccc32)ccc1O | < 5.00 | < 5.00 | 5.06 | 
COc1ccc2c(c1)CCC(=O)/C2=C/c1ccc(OC)c(OC)c1OC | 6.07 | 5.77 | 6.02 | 25.78
COc1ccc2c(c1)CCC(=O)/C2=C/c1ccc(N(C)C)cc1 | 5.10 | 5.06 | 5.25 | 
COc1ccc2c(c1)CCC(=O)/C2=C/c1ccc(Br)cc1 | 5.82 | 5.53 | 5.95 | 
COc1cccc2c1CCC(=O)/C2=C/c1ccc(C)cc1 | < 5.00 | < 5.00 | < 5.00 | 
COc1cccc2c1CCC(=O)/C2=C/c1ccc(Cl)c(Cl)c1 | < 5.00 | < 5.00 | < 5.00 | 
COc1ccc2c(c1)CCC(=O)/C2=C/c1ccc(O)cc1 | 6.02 | 5.95 | 6.35 | 
COc1ccc2c(c1)CCC(=O)/C2=C/c1ccc(C(F)(F)F)cc1 | 5.92 | 5.63 | 6.12 | 
COc1ccc2c(c1)/C(=C\c1cccc(O)c1)C(=O)CC2 | 5.59 | 5.31 | 5.68 | 
COc1cc(/C=C2/C(=O)CCc3cc(OC)ccc32)cc(OC)c1 | 7.11 | 6.82 | 6.41 | 6.88
COc1ccc(/C=C2/C(=O)CCc3c(OC)cccc32)cc1O | 5.20 | < 5.00 | 5.25 | 
COc1cccc2c1CCC(=O)/C2=C/c1c(Cl)cccc1Cl | 5.06 | 5.17 | < 5.00 | 
COc1cccc2c1CCC(=O)/C2=C/c1ccc(N(C)C)cc1 | < 5.00 | 5.01 | 5.11 | 
COc1ccc2c(c1)/C(=C\c1ccccc1)C(=O)CC2 | 5.82 | 5.49 | 5.84 | 

SMILES | pIC50 (CCRF-CEM) | pIC50 (HCT-116) | pIC50 (MDA-MB-435) | IC50 (Tubulin) [µM]
COc1ccc2c(c1)/C(=C\c1ccccc1Cl)C(=O)CC2 | 5.28 | 5.63 | 5.77 | 
COc1ccc2c(c1)/C(=C\c1ccc(OC)c(O)c1)C(=O)CC2 | 5.85 | 5.86 | 5.98 | 
COc1cccc2c1CCC(=O)/C2=C/c1ccc(Br)cc1 | < 5.00 | 5.17 | 5.12 | 
COc1cccc2c1CCC(=O)/C2=C/c1ccc([N+](=O)[O-])cc1 | < 5.00 | 5.06 | 5.11 | 
COc1cc(/C=C2/C(=O)CCc3c(OC)cccc32)cc(OC)c1 | < 5.00 | 5.25 | 5.40 | 
COc1cccc2c1CCC(=O)/C2=C/c1ccc(Cl)cc1Cl | < 5.00 | 5.15 | 5.03 | 
COc1ccc2c(c1)/C(=C\c1ccc(N(C)C)cc1)C(=O)CC2 | < 5.00 | < 5.00 | < 5.00 | 
COc1ccc2c(c1)CCC(=O)/C2=C/c1ccc(O)c(OC)c1 | 5.24 | 5.12 | 5.35 | 
COc1cccc2c1CCC(=O)/C2=C/c1ccc(Cl)cc1 | 5.07 | 5.12 | 5.16 | 
COc1ccc2c(c1)/C(=C\c1ccc(Br)cc1)C(=O)CC2 | < 5.00 | < 5.00 | < 5.00 | 
COc1ccc2c(c1)/C(=C\c1ccc(Cl)cc1)C(=O)CC2 | < 5.00 | 5.33 | 5.23 | 
COc1ccc2c(c1)CCC(=O)/C2=C/c1ccc(Cl)c(Cl)c1 | 5.73 | 5.60 | 5.91 | 
COc1ccc2c(c1)CCC(=O)/C2=C/c1ccccc1 | 6.04 | 6.33 | 6.03 | 
COc1ccc2c(c1)CCC(=O)/C2=C/c1ccc(Cl)cc1Cl | 5.92 | 5.67 | 6.48 | 
COc1ccc2c(c1)/C(=C\c1ccc(O)cc1)C(=O)CC2 | 5.98 | 5.49 | 6.07 | 
COc1cccc2c1CCC(=O)/C2=C/c1ccc(O)cc1 | 5.36 | 5.57 | 5.81 | 
COc1ccc2c(c1)CCC(=O)/C2=C/c1ccc(C)cc1 | 5.64 | 5.59 | 5.88 | 
COc1ccc2c(c1)/C(=C\c1ccc(Cl)cc1Cl)C(=O)CC2 | < 5.00 | < 5.00 | < 5.00 | 
COc1ccc2c(c1)CCC(=O)/C2=C/c1ccc(OC)c(O)c1 | 6.92 | 6.49 | 6.20 | 
COc1ccc2c(c1)CCC(=O)/C2=C/c1ccc(Cl)cc1 | 6.02 | 5.90 | 6.05 | 

SMILES | pIC50 (CCRF-CEM) | pIC50 (HCT-116) | pIC50 (MDA-MB-435) | IC50 (Tubulin) [µM]
COc1ccc2c(c1)/C(=C\c1ccc(C)cc1)C(=O)CC2 | 5.42 | 5.43 | 5.58 | 
COc1ccc2c(c1)/C(=C\c1cc(OC)c(OC)c(OC)c1)C(=O)CC2 | 9.00 | 6.29 | 6.47 | 9.63
COc1ccc(/C=C2/C(=O)CCc3c(OC)cccc32)cc1 | 5.58 | 5.45 | 5.86 | 
COc1ccc2c(c1)CCC(=O)/C2=C/c1ccc([N+](=O)[O-])cc1 | 6.17 | 5.65 | 6.27 | 
COc1ccc2c(c1)/C(=C\c1ccc(OC)c(OC)c1)C(=O)CC2 | 6.57 | 5.88 | 6.05 | 
COc1ccc(/C=C2/C(=O)CCc3ccc(OC)cc32)cc1 | 6.05 | 5.72 | 6.14 | 
COc1ccc(/C=C2/C(=O)CCc3c(OC)cccc32)cc1OC | 5.87 | 5.67 | 5.81 | 
COc1ccc2c(c1)CCC(=O)/C2=C/c1cccc(O)c1 | 5.84 | 5.75 | 6.12 | 
COc1ccc2c(c1)/C(=C\c1ccc(O)c(OC)c1)C(=O)CC2 | 5.16 | < 5.00 | 5.36 | 
COc1cc(/C=C2/C(=O)CCc3ccc(OC)cc32)cc(OC)c1 | 6.59 | 6.30 | 6.07 | 
COc1ccc2c(c1)/C(=C\c1ccc([N+](=O)[O-])cc1)C(=O)CC2 | < 5.00 | 5.05 | < 5.00 | 
COc1ccc2c(c1)/C(=C\c1ccc(C(F)(F)F)cc1)C(=O)CC2 | < 5.00 | 5.21 | 5.19 | 
COc1ccc2c(c1)/C(=C\c1ccc(Cl)c(Cl)c1)C(=O)CC2 | < 5.00 | < 5.00 | < 5.00 | 
COc1cccc2c1CCC(=O)/C2=C/c1ccc(OC)c(OC)c1OC | < 5.00 | < 5.00 | < 5.00 | 
COc1ccc2c(c1)CCC(=O)/C2=C/c1ccc(OC)c(OC)c1 | 7.14 | 6.89 | 6.70 | 6.42
COc1ccc2c(c1)/C(=C\c1ccc(OC)c(OC)c1OC)C(=O)CC2 | 5.38 | 5.57 | 5.87 | 
COc1ccc2c(c1)CCC(=O)/C2=C/c1ccc(C(C)(C)C)cc1 | 5.51 | 5.17 | 5.75 | 
COc1ccc(/C=C2/C(=O)CCc3cc(OC)ccc32)cc1 | 6.96 | 6.07 | 6.68 | 25.82
COc1cccc2c1CCC(=O)/C2=C/c1cc(OC)c(OC)c(OC)c1 | 5.66 | 5.91 | 6.21 | 18.68
